Measurements published in ChEMBL document CHEMBL4000220, “Optimization of spirocyclic proline tryptophan hydroxylase-1 inhibitors” (Bioorg Med Chem Lett, 2017).

Columns and labels:
Mus musculus [1] = assay: Drug level in mouse treated with (S)-ethyl 8-(2-amino-6-((R)-1-(5-chloro-3',5'-difluorobiphenyl-2-yl)-2,2,2-trifluoroethoxy)pyrimidin-4-yl)-2,8-diazaspiro[4.5]decane-3-carboxylate at 10 to 50 mg/kg, po administered as single dose; assay type: ADME, organism-based; conditions: in vivo
[2] = biological target: T1, Tryptophan 5-hydroxylase 1 (Homo sapiens, UniProt P17752)
T1 sequence (P17752 whole entry): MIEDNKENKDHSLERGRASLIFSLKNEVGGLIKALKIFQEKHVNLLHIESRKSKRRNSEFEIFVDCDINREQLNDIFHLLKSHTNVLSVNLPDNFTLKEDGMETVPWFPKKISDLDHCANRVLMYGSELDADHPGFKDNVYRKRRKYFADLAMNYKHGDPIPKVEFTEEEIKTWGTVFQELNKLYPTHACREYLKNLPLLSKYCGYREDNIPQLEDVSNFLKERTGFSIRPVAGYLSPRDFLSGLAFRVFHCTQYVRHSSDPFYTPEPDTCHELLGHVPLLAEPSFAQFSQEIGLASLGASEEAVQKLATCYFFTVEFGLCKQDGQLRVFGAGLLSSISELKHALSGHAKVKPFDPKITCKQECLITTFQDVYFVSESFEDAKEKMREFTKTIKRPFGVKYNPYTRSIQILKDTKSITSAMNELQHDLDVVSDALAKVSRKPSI
Description: Inhibition of TPH1 (unknown origin)

Mus musculus [3] = assay: In vivo inhibition of TPH1 in mouse assessed as reduction in 5-HT level in intestinal mucosa at 50 mg/kg, po administered daily as single dose relative to control; assay type: functional
Mus musculus [4] = assay: In vivo inhibition of TPH1 in mouse assessed as reduction in 5-HT level in intestinal mucosa at 10 mg/kg, po administered daily as single dose relative to control; assay type: functional
Mus musculus [5] = assay: Prodrug activation in mouse assessed as (S)-8-(2-amino-6-((R)-1-(5-chloro-3'-fluorobiphenyl-2-yl)-2,2,2-trifluoroethoxy)pyrimidin-4-yl)-2,8-diazaspiro[4.5]decane-3-carboxylic acid formation at 10 to 50 mg/kg, po administered as single dose; assay type: organism-based; conditions: in vivo
Mus musculus [6] = assay: Prodrug activation in mouse assessed as (S)-8-(2-amino-6-((R)-1-(5-chloro-3'-(trifluoromethyl)biphenyl-2-yl)-2,2,2-trifluoroethoxy)pyrimidin-4-yl)-2,8-diazaspiro[4.5]decane-3-carboxylic acid formation at 10 to 50 mg/kg, po administered as single dose; assay type: organism-based; conditions: in vivo
Mus musculus [7] = assay: Prodrug activation in mouse assessed as (S)-8-(2-amino-6-((R)-1-(5-chloro-3'-sulfamoylbiphenyl-2-yl)-2,2,2-trifluoroethoxy)pyrimidin-4-yl)-2,8-diazaspiro[4.5]decane-3-carboxylic acid formation at 10 to 50 mg/kg, po administered as single dose; assay type: organism-based; conditions: in vivo
Mus musculus [8] = assay: Prodrug activation in mouse assessed as (S)-8-(2-amino-6-((R)-1-(5-chloro-3'-methylbiphenyl-2-yl)-2,2,2-trifluoroethoxy)pyrimidin-4-yl)-2,8-diazaspiro[4.5]decane-3-carboxylic acid formation at 10 to 50 mg/kg, po administered as single dose; assay type: organism-based; conditions: in vivo
Mus musculus [9] = assay: Prodrug activation in mouse assessed as (S)-8-(2-amino-6-((R)-1-(5-chloro-3'-methoxybiphenyl-2-yl)-2,2,2-trifluoroethoxy)pyrimidin-4-yl)-2,8-diazaspiro[4.5]decane-3-carboxylic acid formation at 10 to 50 mg/kg, po administered as single dose; assay type: organism-based; conditions: in vivo
Mus musculus [10] = assay: Prodrug activation in mouse assessed as (S)-8-(2-amino-6-((R)-1-(3'-tert-butyl-5-chlorobiphenyl-2-yl)-2,2,2-trifluoroethoxy)pyrimidin-4-yl)-2,8-diazaspiro[4.5]decane-3-carboxylic acid formation at 10 to 50 mg/kg, po administered as single dose; assay type: organism-based; conditions: in vivo
Mus musculus [11] = assay: Drug level in mouse treated with (S)-ethyl 8-(2-amino-6-((R)-1-(5-chloro-3'-(trifluoromethyl)biphenyl-2-yl)-2,2,2-trifluoroethoxy)pyrimidin-4-yl)-2,8-diazaspiro[4.5]decane-3-carboxylate at 10 to 50 mg/kg, po administered as single dose; assay type: ADME, organism-based; conditions: in vivo
Mus musculus [12] = assay: Prodrug activation in mouse assessed as (S)-8-(2-amino-6-((R)-1-(5-chloro-3',5'-difluorobiphenyl-2-yl)-2,2,2-trifluoroethoxy)pyrimidin-4-yl)-2,8-diazaspiro[4.5]decane-3-carboxylic acid formation at 10 to 50 mg/kg, po administered as single dose; assay type: organism-based; conditions: in vivo

Row | Compound | inhibition in vivo at 50 mg/kg (Mus musculus [3]) [%] | inhibition in vivo at 10 mg/kg (Mus musculus [4]) [%] | also measured
1 | Nc1nc(O[C@H](c2ccc(Cl)cc2-c2cc(F)cc(F)c2)C(F)(F)F)cc(N2CCC3(CC2)CN[C@H](C(=O)O)C3)n1 | – | – | Drug metabolism (Mus musculus [1]): Metabolite_Detected; IC50 [2]: 22 nM
2 | CCOC(=O)[C@@H]1CC2(CCN(c3cc(O[C@H](c4ccc(Cl)cc4-c4cccc(F)c4)C(F)(F)F)nc(N)n3)CC2)CN1 | 61 | 38 | Drug metabolism (Mus musculus [5]): Metabolite_Detected
3 | CCOC(=O)[C@@H]1CC2(CCN(c3cc(O[C@H](c4ccc(Cl)cc4-c4cccc(C(F)(F)F)c4)C(F)(F)F)nc(N)n3)CC2)CN1 | 64 | 31 | Drug metabolism (Mus musculus [6]): Metabolite_Detected
4 | CCOC(=O)[C@@H]1CC2(CCN(c3cc(O[C@H](c4ccc(Cl)cc4-c4cccc(S(N)(=O)=O)c4)C(F)(F)F)nc(N)n3)CC2)CN1 | 42 | 15 | Drug metabolism (Mus musculus [7]): Metabolite_Detected
5 | CCOC(=O)[C@@H]1CC2(CCN(c3cc(O[C@H](c4ccc(Cl)cc4-c4cccc(C)c4)C(F)(F)F)nc(N)n3)CC2)CN1 | 54 | 24 | Drug metabolism (Mus musculus [8]): Metabolite_Detected
6 | CCOC(=O)[C@@H]1CC2(CCN(c3cc(O[C@H](c4ccc(Cl)cc4-c4cccc(OC)c4)C(F)(F)F)nc(N)n3)CC2)CN1 | 46 | 19 | Drug metabolism (Mus musculus [9]): Metabolite_Detected
7 | CCOC(=O)[C@@H]1CC2(CCN(c3cc(O[C@H](c4ccc(Cl)cc4-c4cccc(C(C)(C)C)c4)C(F)(F)F)nc(N)n3)CC2)CN1 | 59 | 33 | Drug metabolism (Mus musculus [10]): Metabolite_Detected
8 | Nc1nc(O[C@H](c2ccc(Cl)cc2-c2cccc(C(F)(F)F)c2)C(F)(F)F)cc(N2CCC3(CC2)CN[C@H](C(=O)O)C3)n1 | – | – | Drug metabolism (Mus musculus [11]): Metabolite_Detected; IC50 [2]: 21 nM
9 | CCOC(=O)[C@@H]1CC2(CCN(c3cc(O[C@H](c4ccc(Cl)cc4-c4cc(F)cc(F)c4)C(F)(F)F)nc(N)n3)CC2)CN1 | 37 | 30 | Drug metabolism (Mus musculus [12]): Metabolite_Detected
